# Where a name gives a salt, the structure may show the parent alone. Read-outs that look alike come from different tables or passages of the source.
# Experiments:
# [1] = tested on: patients with persistent atrial fibrillation; details: SAFE-T trial, cited from earlier work; for increasing the time to a recurrence of atrial fibrillation, versus placebo / effectiveness in increasing time to recurrence of atrial fibrillation relative to sotalol: P<0.001; for number of strokes per 100 patient-years of follow-up: calculated from page 1866 of Singh et al., placebo 1.91
# [2] = tested on: patients with a history of atrial fibrillation or atrial flutter; assay: Prospective, multinational, double-blind, randomized, placebo-controlled, parallel group trial (ATHENA) of dronedarone hydrochloride for prevention of stroke; type: in vivo, human
# Protocol: Efficacy of dronedarone and its pharmaceutically acceptable salts versus placebo for the prevention of stroke was provided via dronedarone hydrochloride during a prospective, multinational, double-blind, randomized, multi-center, placebo-controlled, parallel group trial.
# Eligible patients have a history of atrial fibrillation or atrial flutter and/or may be in normal sinus rhythm or in atrial fibrillation or flutter at the time of recruitment. Recruitment of patients was conducted taking into account the following inclusion criteria:
# 1) One of the following risk factors had to be present: • age equal to or greater than 70 years, • hypertension (taking antihypertensives of at least two different classes), • diabetes, • history of cerebral stroke (transient ischemic event or completed cerebral stroke) or of systemic embolism, • left atrial diameter greater than or equal to 50 mm measured by echocardiography, • left ventricular ejection fraction less than 40%, measured by two-dimensional echography; or • age equal to or above 70, or even above 75, possibly combined with at least one of the risk factors below: • hypertension (taking antihypertensives of at least two different classes), • diabetes, • history of cerebral stroke (transient ischemic event or completed cerebral stroke) or of systemic embolism, • left atrial diameter greater than or equal to 50 mm measured by echocardiography, • left ventricular ejection fraction less than 40%, measured by two-dimensional echography;
# 2) availability of one electrocardiogram within the last six months, showing that the patients was or is in atrial fibrillation/flutter,
# 3) availability of one electrocardiogram within the last six months, showing that the patients was or is in sinus rhythm.
# Study drug treatment units (placebo or dronedarone hydrochloride corresponding to 400 mg of base) were such that each patient took one tablet in the morning during or shortly after breakfast and one tablet in the evening during or shortly after dinner.
# The treatment duration depended on the time of recruitment of each patient in the trial and could be comprised from 12 months to 30 months.
# Results were calculated using non-parametric Kaplan-Meier estimate.
# Cox's proportional hazard model was used to estimate the hazard ratio also called relative risk.
# Relative risk (RR) is the ratio between the risk of having a stroke (or transient ischemic attack (TIA)) for patients treated with dronedarone and the risk of having a stroke (or transient ischemic attack (TIA)) for patients treated with placebo.
# Percentage of decrease of an event is calculated as follow: […]
# [3] = on-treatment analysis of 30 months
# [4] = versus placebo, Cox's proportional hazard model
compound,measurement,setting,value
CCCCc1oc2ccccc2c1C(=O)c1cc(I)c(OCCN(CC)CC)c(I)c1 [amiodarone],"increasing the time to a recurrence of atrial fibrillation, versus placebo",[1],significantly more effective than placebo
same,effectiveness in increasing time to recurrence of atrial fibrillation relative to sotalol,[1]; analysis according to the treatment actually received,four times as effective
same,number of strokes per 100 patient-years of follow-up,[1],2.06 per 100 patient-years
same,effectiveness in increasing time to recurrence of atrial fibrillation relative to sotalol,[1]; intention-to-treat analysis,six times as effective as sotalol
"CCCCc1oc2ccc(NS(C)(=O)=O)cc2c1C(=O)c1ccc(OCCCN(CCCC)CCCC)cc1 [dronedarone hydrochloride, 2-n-butyl-3-[4-(3-di-n-butylaminopropoxy)benzoyl]-5-méthylsulfonamido-benzofuranne]",fatal stroke events reported,"[2]; 2301 of 4628 patients on drug, 400 mg base twice daily, 12 to 30 months, placebo group 18 events",11
same,ischemic stroke events reported,"[2]; 2301 of 4628 patients on drug, 400 mg base twice daily, 12 to 30 months, placebo group 49 events",33
same,stroke events reported,"[2]; 2301 of 4628 patients on drug, 400 mg base twice daily, 12 to 30 months, placebo group 70 events",45
same,stroke or TIA events reported,"[2]; 2301 of 4628 patients on drug, 400 mg base twice daily, 12 to 30 months, placebo group 80 events",52
same,ACS events reported (cardiovascular hospitalization for Acute Coronary Syndrome),"[2]; 2301 of 4628 patients on drug, 400 mg base twice daily, 12 to 30 months, placebo group 89 events",62
same,"stroke, Acute Coronary Syndrome (ACS) or cardiovascular death events reported","[2]; 2301 of 4628 patients on drug, 400 mg base twice daily, 12 to 30 months, placebo group 216 events",147
same,"stroke, Acute Coronary Syndrome (ACS) or death events reported","[2]; 2301 of 4628 patients on drug, 400 mg base twice daily, 12 to 30 months, placebo group 262 events",196
same,"time course of effect on first stroke (FIG. 2, Kaplan Meier cumulative incidence curves)",[2]; [3],occurred early and increased over time
same,"time course of effect on first stroke or TIA (FIG. 1, Kaplan Meier cumulative incidence curves)",[2]; [3],occurred early and increased over time
same,relative risk of cardiovascular hospitalization for Acute Coronary Syndrome,[2]; [4],0.70
same,relative risk of fatal stroke,[2]; [4],0.62
same,relative risk of ischemic stroke,[2]; [4],0.68
same,relative risk of stroke,[2]; [4],0.65
same,relative risk of stroke or TIA,[2]; [4],0.65
same,"relative risk of stroke, Acute Coronary Syndrome (ACS) or cardiovascular death",[2]; [4],0.68
same,decrease of the relative risk of cardiovascular hospitalization for Acute Coronary Syndrome,"[2]; versus placebo, x=1-RR",30%
same,decrease of the relative risk of fatal stroke,"[2]; versus placebo, x=1-RR",38%
same,decrease of the relative risk of ischemic stroke,"[2]; versus placebo, x=1-RR",32%
same,decrease of the relative risk of stroke,"[2]; versus placebo, x=1-RR",35%
same,decrease of the relative risk of stroke or TIA,"[2]; versus placebo, x=1-RR",35%
same,"decrease of the relative risk of stroke, Acute Coronary Syndrome (ACS) or cardiovascular death","[2]; versus placebo, x=1-RR",32%
same,"decrease of the relative risk of stroke, Acute Coronary Syndrome (ACS) or death","[2]; versus placebo, x=1-RR",25%
CC(C)NCC(O)c1ccc(NS(C)(=O)=O)cc1 (stereo not shown) [sotalol],"increasing the time to a recurrence of atrial fibrillation, versus placebo",[1],significantly more effective than placebo
same,number of strokes per 100 patient-years of follow-up,[1],2.71 per 100 patient-years
